In US20100015128A1, “GRP78 as a Predictor of Responsiveness to Therapeutic Agents” (UNIVERSITY OF SOUTHERN CALIFORNIA, priority 2006, published 2010):

What was measured:
[1] = tested on: GRP78; experiment: Western blot of GRP78 in SK-N-SH cells with H129 antibody; assay type: cell-based, human; conditions: 0.5 μM thapsigargin 16 hours
Method: FIGS. 11A, 11B and 11C show specific detection of GRP78 by H129 antibody. FIG. 11A is a Western blot assay. The human neuroblastoma SK-N-SH cells were either grown under normal conditions (−) or treated with 0.5 μM thapsigargin for 16 hours. Fifty μg of total cell lysate prepared from these cells were subjected to Western blot analysis, using the […] (1:1000 dilution). […] In FIG. 11B, Chinese hamster ovary (CHO) cells expressing basal level of GRP78 and its derivative C.1 cells overexpressing GRP78 were embedded in paraffin after fixation in formalin. The sections prepared from these blocks were stained with the immunohistochemical technique using the H129 antibody (1:100 dilution). GRP78 level, as depicted by brown staining, was elevated in C.1 cells as compared to CHO cells (600×). In FIG. 11C, paraffin slides from breast cancer patients were stained with the H129 antibody with the immunohistochemical technique. Examples of plasma cell staining from two different patients are shown.

[2] = tested on: BIK; experiment: BIK protein induction under stress conditions (Western blot); assay type: cell-based, human; conditions: human cells
Text: Cell lines and culture conditions. The estrogen-dependent cell line MCF-7/BUS was provided by A. M. Soto (Tufts University, Medford, Mass.) and has been described (Soto et al., Environ. Health Perspect. 103:113-22 (1995)). The human embryonic kidney 293T cells and MCF-7/BUS cells were maintained in DMEM supplemented with 10% fetal bovine serum. Estrogen starvation of MCF-7/BUS cells was done as described (Hur et al., PNAS 101:2351-6 (2004)). Briefly, the cells were washed thrice with phenol red-free DMEM and incubated in washing medium at 37° C. for 60 minutes. The MCF-7/BUS cells were then cultured in phenol red-free DMEM supplemented with 5% charcoal/dextran-stripped fetal bovine serum for 24 to 72 hours as indicated. For etoposide treatment, the cells were incubated with 50 μmol/L etoposide for 6 hours and cultured for another 24 hours before harvest.
Western blots and quantitation. The Western blots were done as described (Lee, Methods 35:373-81 (2005)). The primary antibodies were goat anti-BIK (N-19, Santa Cruz Biotechnology, Santa Cruz, Calif.), rat anti-Grp78 (76-E6, Santa Cruz Biotechnology), rat anti-GRP94, rabbit anti-calnexin, rabbit anti-calreticulin (Stressgen, Ann Arbor, Mich.), mouse anti-Flag M2, mouse anti-poly(ADP-ribose) polymerase (PARP; F-2, Santa Cruz Biotechnology, Santa Cruz, Calif.), and mouse anti-h-actin (Sigma-Aldrich, St. Louis, Mo.). Anti-h-actin was diluted at 1:2,000; anti-BIK at 1:500; and other antibodies at 1:1,000. Respective horseradish peroxidase-conjugated secondary antibodies (Santa Cruz Biotechnology, Santa Cruz, Calif.) at 1:1,000 dilution were used. The Western blots were quantitated by Fluor-S® MultiImager (Bio-Rad, Hercules, Calif.) according to the manufacturer's instructions. All quantitations were normalized against h-actin.

With C/C=C(/C)C(=O)O[C@H]1C(C)=C2[C@H]([C@@H]1OC(=O)CCCCCCC)[C@@](C)(OC(C)=O)C[C@H](OC(=O)CCC)[C@@]1(O)[C@H]2OC(=O)[C@@]1(C)O [thapsigargin] the GRP78 protein band [1] was “highly inducible” and the “induction of BIK by ER stress inducers” value [2] was “do not induce”.
